# In patent US12029706B2, “Methods for treating mucopolysaccharidosis” (UNIVERSITY OF MIAMI, priority 2015, dated 2024):
# “Also recorded” adds a separate entry of the source.
# How the values were obtained:
# [1] = tested on: alpha-L-iduronidase (IDUA); assay: IDUA enzyme activity in MPS-I patient-derived fibroblast cells (4-Methylumbelliferyl α-L-iduronide substrate); type: cell-based, human; details: compound 48 hours, vs buffer only control, FIG. 1
# Protocol: (§1) A cell culture experiment was performed in MPS-I patient-derived fibroblast cells. Cells were cultured overnight in a 384-well plate, at a concentration of 20,000 cells per well in advanced DMEM media (Life Technologies) supplemented with 15% FBS (Life technologies), 1× Glutamax (Life Technologies) and beta-mercaptoethanol (1:125000 dilution). The next day, cells were treated with the indicated compound with final concentrations including, but not limited to: 100 μM, 30 μM, 10 μM, 3.3 μM, 1.1 μM, 0.37 μM and 0.12 μM depending on experiment. Treated cells were then incubated for 48 hours at 37° C., 5% CO2, 95% humidity. Cells were then washed with HBSS buffer, and 25 μM of the fluorogenic substrate 4-Methylumbelliferyl α-L-iduronide (free acid) (Santa Cruz Biotechnology) were added in the presence of 0.2M CHNaO2, 0.1% BSA, and 0.1% Triton X. After the addition of the 4-Methylumbelliferyl α-L-iduronide substrate, cells were incubated at 37° C. for 3 to 4 hours, placed at room temperature for 30 minutes to stabilize and alpha-L-iduronidase (IDUA) enzyme activity was measured using the EnVision Multilabel Plate Reader (Perkin Elmer, Inc.). Compounds were purchased from Tocris, Cayman Chemicals or Sigma-Aldrich.
# [2] = tested on: α-L-iduronidase (IDUA) mRNA; assay: IDUA mRNA expression in MPS I patient cells (normalized to GAPDH); type: cell-based, human; details: 48 hours
# Protocol: as §1, with “μ[…]” for “μM, 30 μM, 10 μM, 3.3 μM, 1.1 μM, 0.37 μM”, “Sigma-Aldrich. Tests were subsequently conducted to determine whether the increase in activity could in-part be attributed to increases in gene expression. […] Resveratrol and Piceatannol were added to patient cells for 48 hours, in the same conditions mentioned above.” for “Sigma-Aldrich.”
# alpha-L-iduronidase = alpha-L-iduronidase activity in plasma of treated mice; type: in vivo; details: for alpha-L-iduronidase activity in plasma: 25 mg/kg or 50 mg/kg daily, 1 month; for α-iduronidase activity in plasma at 50 mg/kg/day: one month
Compound,IDUA enzyme activity [1],"IDUA mRNA level ([2]; FIG. 2, listed as resveratrol)",alpha-L-iduronidase activity in plasma (alpha-L-iduronidase; FIG. 3),"alpha-L-iduronidase activity in plasma (alpha-L-iduronidase; FIG. 3, listed as resveratrol)",α-iduronidase activity in plasma at 50 mg/kg/day (alpha-L-iduronidase; FIG. 3),"IDUA mRNA level ([2]; FIG. 2, listed as Piceatannol)","IDUA mRNA level ([2]; FIG. 2, listed as piceatannol)","alpha-L-iduronidase activity in plasma (alpha-L-iduronidase; FIG. 3, listed as piceatannol)"
"Oc1ccc(/C=C/c2cc(O)cc(O)c2)cc1 [CTI-102, 3,5,4′-trihydroxystilbene]",increase in IDUA activity,increased the mRNA level; also recorded: increase in IDUA mRNA expression,Increases in alpha-L-iduronidase activity,elevation of α-iduronidase activity,substantial boosts in enzyme activity,–,–,–
"Oc1cc(O)cc(/C=C/c2ccc(O)c(O)c2)c1 [CTI-101, piceatannol]",–,–,Increases in alpha-L-iduronidase activity,–,substantial boosts in enzyme activity,increase in IDUA mRNA expression,increased the mRNA level,elevation of α-iduronidase activity
